Test results reported in patent publication US7118895B2, “Process for producing aglycon by using diglycosidase and flavor-improved food containing the aglycon and converting agent to be used in the process” (Amano Enzyme Inc., priority 2000, dated 2006).

How the values were obtained:
[1] = system: Diglycosidase derived from P. multicolor; assay: Reactivity toward various isoflavone glycosides (HPLC); type: biochemical, Penicillium multicolor; design: glucoside / aglycon: unit not given here; settings: 55 °C, pH 4.0
How it was run: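 Enzymes at 0.75 AU/mL in pH 4.0 acetate buffer were reacted at 55° C with individual isoflavone glycosides (substrate stock 2 mM in methanol) in 20 mM acetate pH 4.0. Aglycone release followed at 0, 1, 3 and 6 h: ethanol-quenched, ODS HPLC with UV 260 nm, quantified against calibration curves.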

Crude diglycosidase = assay: Examination of substrate concentration in the conversion into isoflavone aglycons by diglycosidase using soybean materials; type: biochemical, Penicillium multicolor IAM7153;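 further: percent of the isoflavone family total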
How it was run: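 Soybean materials (roasted soy flour, soymilk, defatted soybean, concentrated soy protein) at 2–30% (w/v) in 20 mM acetate pH 4.0 were reacted with crude diglycosidase at 55° C with shaking; enzyme solution added was 1.88 AU/mL. Samples taken at 0, 1, 3 and 6 h were ethanol-extracted and analyzed by HPLC.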

SMILES: COc1cc2c(=O)c(-c3ccc(O)cc3)coc2cc1O[C@@H]1O[C@H](COC(C)=O)[C@@H](O)[C@H](O)[C@H]1O [acetylglycitin, 6″-O-acetylglycitin]
- aglycon ([1]; Reaction time 0 h): 0
- glucoside ([1]; Reaction time 0 h): 100
- aglycon ([1]; Reaction time 1 h): 98
- glucoside ([1]; Reaction time 1 h): 2
- aglycon ([1]; Reaction time 3 h): 97.9
- glucoside ([1]; Reaction time 3 h): 2.1
- aglycon ([1]; Reaction time 6 h): 97.5
- glucoside ([1]; Reaction time 6 h): 2.5
- Decomposition efficiency: ratio of each glycoside/aglycon within its isoflavone family (Crude diglycosidase; concentrated soybean protein, substrate concentration 2%, heat treatment of enzyme no, reaction time 0 h): 35.8%
- Decomposition efficiency: ratio of each glycoside/aglycon within its isoflavone family (Crude diglycosidase; concentrated soybean protein, substrate concentration 2%, heat treatment of enzyme no, reaction time 1 h): 14.3%
- Decomposition efficiency: ratio of each glycoside/aglycon within its isoflavone family (Crude diglycosidase; concentrated soybean protein, substrate concentration 2%, heat treatment of enzyme no, reaction time 3 h): 5.3%
- Decomposition efficiency: ratio of each glycoside/aglycon within its isoflavone family (Crude diglycosidase; concentrated soybean protein, substrate concentration 2%, heat treatment of enzyme no, reaction time 6 h): 0.0%
- Decomposition efficiency: ratio of each glycoside/aglycon within its isoflavone family (Crude diglycosidase; concentrated soybean protein, substrate concentration 2%, heat treatment of enzyme yes, reaction time 6 h): 35.0%
- Decomposition efficiency: ratio of each glycoside/aglycon within its isoflavone family (Crude diglycosidase; concentrated soybean protein, substrate concentration 5%, heat treatment of enzyme no, reaction time 0 h): 35.6%
- Decomposition efficiency: ratio of each glycoside/aglycon within its isoflavone family (Crude diglycosidase; concentrated soybean protein, substrate concentration 5%, heat treatment of enzyme no, reaction time 1 h): 27.1%
- Decomposition efficiency: ratio of each glycoside/aglycon within its isoflavone family (Crude diglycosidase; concentrated soybean protein, substrate concentration 5%, heat treatment of enzyme no, reaction time 3 h): 17.8%
- Decomposition efficiency: ratio of each glycoside/aglycon within its isoflavone family (Crude diglycosidase; concentrated soybean protein, substrate concentration 5%, heat treatment of enzyme no, reaction time 6 h): 12.3%
- Decomposition efficiency: ratio of each glycoside/aglycon within its isoflavone family (Crude diglycosidase; concentrated soybean protein, substrate concentration 5%, heat treatment of enzyme yes, reaction time 6 h): 34.4%
- Decomposition efficiency: ratio of each glycoside/aglycon within its isoflavone family (Crude diglycosidase; concentrated soybean protein, substrate concentration 10%, heat treatment of enzyme no, reaction time 0 h): 35.7%
- Decomposition efficiency: ratio of each glycoside/aglycon within its isoflavone family (Crude diglycosidase; concentrated soybean protein, substrate concentration 10%, heat treatment of enzyme no, reaction time 1 h): 31.2%
- Decomposition efficiency: ratio of each glycoside/aglycon within its isoflavone family (Crude diglycosidase; concentrated soybean protein, substrate concentration 10%, heat treatment of enzyme no, reaction time 3 h): 26.2%
- Decomposition efficiency: ratio of each glycoside/aglycon within its isoflavone family (Crude diglycosidase; concentrated soybean protein, substrate concentration 10%, heat treatment of enzyme no, reaction time 6 h): 23.9%
- Decomposition efficiency: ratio of each glycoside/aglycon within its isoflavone family (Crude diglycosidase; concentrated soybean protein, substrate concentration 10%, heat treatment of enzyme yes, reaction time 6 h): 35.2%
- Decomposition efficiency: ratio of each glycoside/aglycon within its isoflavone family (Crude diglycosidase; concentrated soybean protein, substrate concentration 20%, heat treatment of enzyme no, reaction time 0 h): 35.9%
- Decomposition efficiency: ratio of each glycoside/aglycon within its isoflavone family (Crude diglycosidase; concentrated soybean protein, substrate concentration 20%, heat treatment of enzyme no, reaction time 1 h): 35.4%
- Decomposition efficiency: ratio of each glycoside/aglycon within its isoflavone family (Crude diglycosidase; concentrated soybean protein, substrate concentration 20%, heat treatment of enzyme no, reaction time 3 h): 33.6%
- Decomposition efficiency: ratio of each glycoside/aglycon within its isoflavone family (Crude diglycosidase; concentrated soybean protein, substrate concentration 20%, heat treatment of enzyme no, reaction time 6 h): 30.5%
- Decomposition efficiency: ratio of each glycoside/aglycon within its isoflavone family (Crude diglycosidase; concentrated soybean protein, substrate concentration 20%, heat treatment of enzyme yes, reaction time 6 h): 35.8%
- Decomposition efficiency: ratio of each glycoside/aglycon within its isoflavone family (Crude diglycosidase; concentrated soybean protein, substrate concentration 30%, heat treatment of enzyme no, reaction time 0 h): 33.9%
- Decomposition efficiency: ratio of each glycoside/aglycon within its isoflavone family (Crude diglycosidase; concentrated soybean protein, substrate concentration 30%, heat treatment of enzyme no, reaction time 1 h): 35.9%
- Decomposition efficiency: ratio of each glycoside/aglycon within its isoflavone family (Crude diglycosidase; concentrated soybean protein, substrate concentration 30%, heat treatment of enzyme no, reaction time 3 h): 30.7%
- Decomposition efficiency: ratio of each glycoside/aglycon within its isoflavone family (Crude diglycosidase; concentrated soybean protein, substrate concentration 30%, heat treatment of enzyme no, reaction time 6 h): 28.3%
- Decomposition efficiency: ratio of each glycoside/aglycon within its isoflavone family (Crude diglycosidase; concentrated soybean protein, substrate concentration 30%, heat treatment of enzyme yes, reaction time 6 h): 33.4%
- Decomposition efficiency: ratio of each glycoside/aglycon within its isoflavone family (Crude diglycosidase; defatted soybean, substrate concentration 2%, heat treatment of enzyme no, reaction time 0 h): not detected
- Decomposition efficiency: ratio of each glycoside/aglycon within its isoflavone family (Crude diglycosidase; defatted soybean, substrate concentration 2%, heat treatment of enzyme no, reaction time 1 h): not detected
- Decomposition efficiency: ratio of each glycoside/aglycon within its isoflavone family (Crude diglycosidase; defatted soybean, substrate concentration 2%, heat treatment of enzyme no, reaction time 3 h): not detected
- Decomposition efficiency: ratio of each glycoside/aglycon within its isoflavone family (Crude diglycosidase; defatted soybean, substrate concentration 2%, heat treatment of enzyme no, reaction time 6 h): not detected
- Decomposition efficiency: ratio of each glycoside/aglycon within its isoflavone family (Crude diglycosidase; defatted soybean, substrate concentration 2%, heat treatment of enzyme yes, reaction time 6 h): not detected
- Decomposition efficiency: ratio of each glycoside/aglycon within its isoflavone family (Crude diglycosidase; defatted soybean, substrate concentration 5%, heat treatment of enzyme no, reaction time 0 h): not detected
- Decomposition efficiency: ratio of each glycoside/aglycon within its isoflavone family (Crude diglycosidase; defatted soybean, substrate concentration 5%, heat treatment of enzyme no, reaction time 1 h): not detected
- Decomposition efficiency: ratio of each glycoside/aglycon within its isoflavone family (Crude diglycosidase; defatted soybean, substrate concentration 5%, heat treatment of enzyme no, reaction time 3 h): not detected
- Decomposition efficiency: ratio of each glycoside/aglycon within its isoflavone family (Crude diglycosidase; defatted soybean, substrate concentration 5%, heat treatment of enzyme no, reaction time 6 h): not detected
- Decomposition efficiency: ratio of each glycoside/aglycon within its isoflavone family (Crude diglycosidase; defatted soybean, substrate concentration 5%, heat treatment of enzyme yes, reaction time 6 h): not detected
- Decomposition efficiency: ratio of each glycoside/aglycon within its isoflavone family (Crude diglycosidase; defatted soybean, substrate concentration 10%, heat treatment of enzyme no, reaction time 0 h): not detected
- Decomposition efficiency: ratio of each glycoside/aglycon within its isoflavone family (Crude diglycosidase; defatted soybean, substrate concentration 10%, heat treatment of enzyme no, reaction time 1 h): not detected
- Decomposition efficiency: ratio of each glycoside/aglycon within its isoflavone family (Crude diglycosidase; defatted soybean, substrate concentration 10%, heat treatment of enzyme no, reaction time 3 h): not detected
- Decomposition efficiency: ratio of each glycoside/aglycon within its isoflavone family (Crude diglycosidase; defatted soybean, substrate concentration 10%, heat treatment of enzyme no, reaction time 6 h): not detected
- Decomposition efficiency: ratio of each glycoside/aglycon within its isoflavone family (Crude diglycosidase; defatted soybean, substrate concentration 10%, heat treatment of enzyme yes, reaction time 6 h): not detected
- Decomposition efficiency: ratio of each glycoside/aglycon within its isoflavone family (Crude diglycosidase; roasted soy flour, substrate concentration 2%, heat treatment of enzyme no, reaction time 0 h): 33.6%
- Decomposition efficiency: ratio of each glycoside/aglycon within its isoflavone family (Crude diglycosidase; roasted soy flour, substrate concentration 2%, heat treatment of enzyme no, reaction time 1 h): not detected
- Decomposition efficiency: ratio of each glycoside/aglycon within its isoflavone family (Crude diglycosidase; roasted soy flour, substrate concentration 2%, heat treatment of enzyme no, reaction time 3 h): not detected
- Decomposition efficiency: ratio of each glycoside/aglycon within its isoflavone family (Crude diglycosidase; roasted soy flour, substrate concentration 2%, heat treatment of enzyme no, reaction time 6 h): not detected
- Decomposition efficiency: ratio of each glycoside/aglycon within its isoflavone family (Crude diglycosidase; roasted soy flour, substrate concentration 2%, heat treatment of enzyme yes, reaction time 6 h): 34.4%
- Decomposition efficiency: ratio of each glycoside/aglycon within its isoflavone family (Crude diglycosidase; roasted soy flour, substrate concentration 5%, heat treatment of enzyme no, reaction time 0 h): 33.8%
- Decomposition efficiency: ratio of each glycoside/aglycon within its isoflavone family (Crude diglycosidase; roasted soy flour, substrate concentration 5%, heat treatment of enzyme no, reaction time 1 h): 11.8%
- Decomposition efficiency: ratio of each glycoside/aglycon within its isoflavone family (Crude diglycosidase; roasted soy flour, substrate concentration 5%, heat treatment of enzyme no, reaction time 3 h): 7.2%
- Decomposition efficiency: ratio of each glycoside/aglycon within its isoflavone family (Crude diglycosidase; roasted soy flour, substrate concentration 5%, heat treatment of enzyme no, reaction time 6 h): not detected
- Decomposition efficiency: ratio of each glycoside/aglycon within its isoflavone family (Crude diglycosidase; roasted soy flour, substrate concentration 5%, heat treatment of enzyme yes, reaction time 6 h): 33.8%
- Decomposition efficiency: ratio of each glycoside/aglycon within its isoflavone family (Crude diglycosidase; roasted soy flour, substrate concentration 10%, heat treatment of enzyme no, reaction time 0 h): 24.2%
- Decomposition efficiency: ratio of each glycoside/aglycon within its isoflavone family (Crude diglycosidase; roasted soy flour, substrate concentration 10%, heat treatment of enzyme no, reaction time 1 h): 16.7%
- Decomposition efficiency: ratio of each glycoside/aglycon within its isoflavone family (Crude diglycosidase; roasted soy flour, substrate concentration 10%, heat treatment of enzyme no, reaction time 3 h): 9.7%
- Decomposition efficiency: ratio of each glycoside/aglycon within its isoflavone family (Crude diglycosidase; roasted soy flour, substrate concentration 10%, heat treatment of enzyme no, reaction time 6 h): not detected
- Decomposition efficiency: ratio of each glycoside/aglycon within its isoflavone family (Crude diglycosidase; roasted soy flour, substrate concentration 10%, heat treatment of enzyme yes, reaction time 6 h): 35.1%
- Decomposition efficiency: ratio of each glycoside/aglycon within its isoflavone family (Crude diglycosidase; roasted soy flour, substrate concentration 20%, heat treatment of enzyme no, reaction time 0 h): 31.8%
- Decomposition efficiency: ratio of each glycoside/aglycon within its isoflavone family (Crude diglycosidase; roasted soy flour, substrate concentration 20%, heat treatment of enzyme no, reaction time 1 h): 22.9%
- Decomposition efficiency: ratio of each glycoside/aglycon within its isoflavone family (Crude diglycosidase; roasted soy flour, substrate concentration 20%, heat treatment of enzyme no, reaction time 3 h): 13.8%
- Decomposition efficiency: ratio of each glycoside/aglycon within its isoflavone family (Crude diglycosidase; roasted soy flour, substrate concentration 20%, heat treatment of enzyme no, reaction time 6 h): 10.0%
- Decomposition efficiency: ratio of each glycoside/aglycon within its isoflavone family (Crude diglycosidase; roasted soy flour, substrate concentration 20%, heat treatment of enzyme yes, reaction time 6 h): 35.0%
- Decomposition efficiency: ratio of each glycoside/aglycon within its isoflavone family (Crude diglycosidase; roasted soy flour, substrate concentration 30%, heat treatment of enzyme no, reaction time 0 h): 35.3%
- Decomposition efficiency: ratio of each glycoside/aglycon within its isoflavone family (Crude diglycosidase; roasted soy flour, substrate concentration 30%, heat treatment of enzyme no, reaction time 1 h): 28.4%
- Decomposition efficiency: ratio of each glycoside/aglycon within its isoflavone family (Crude diglycosidase; roasted soy flour, substrate concentration 30%, heat treatment of enzyme no, reaction time 3 h): 24.4%
- Decomposition efficiency: ratio of each glycoside/aglycon within its isoflavone family (Crude diglycosidase; roasted soy flour, substrate concentration 30%, heat treatment of enzyme no, reaction time 6 h): 13.7%
- Decomposition efficiency: ratio of each glycoside/aglycon within its isoflavone family (Crude diglycosidase; roasted soy flour, substrate concentration 30%, heat treatment of enzyme yes, reaction time 6 h): 34.4%
